{"source": "patent US20230000081A1", "about": "“SYNERGISTIC PESTICIDAL COMPOSITIONS FOR DELIVERY OF PESTICIDAL ACTIVE INGREDIENTS AND METHODS THEREFOR” (0903608 B.C. Ltd., priority 2018, published 2023)", "assay_in_all_cases": "Synergistic Growth Inhibition Assay (MIC, FIC index; 96-well microtiter plate, resazurin dye)", "format_in_all_cases": "cell-based", "key": {"[1]": {"system": "Botrytis cinerea", "settings": "for MIC (A): Compound A alone", "description": "(§1) In some embodiments, the synergistic action between the pesticidal active ingredient, and the at least one C4-C10 (or alternatively C11 or C12) saturated or unsaturated aliphatic acid components of the pesticidal compositions according to embodiments of the present disclosure was tested using a Synergistic Growth Inhibition Assay, which is derived from and related to a checkerboard assay as is known in the art for testing of combinations of antimicrobial agents. In the Synergistic Growth Inhibition Assay used in accordance with some embodiments of the present disclosure, multiple dilutions of combinations of pesticidal active ingredient and at least one C4-C10 saturated or unsaturated aliphatic acid agents are tested in individual cells for inhibitory activity against a target pest or pathogenic organism. In one such embodiment, the combinations of pesticidal active ingredient and C4-C10 (or alternatively C11 or C12) saturated or unsaturated aliphatic acid agents may preferably be tested in decreasing concentrations. In a further such embodiment, the combinations of pesticidal active ingredient and C4-C10 (or alternatively C11 or C12) saturated or unsaturated aliphatic acid agents may be tested in increasing concentrations. These multiple combinations of the pesticidal active ingredient and at least one C4-C10 (or alternatively C11 or C12) saturated or unsaturated aliphatic acid agents may be prepared in 96-well microtiter plates. In one such embodiment, the Synergistic Growth Inhibition Assay then comprises rows which each contain progressively decreasing concentrations of the pesticidal active ingredient and one or more C4-C10 (or alternatively C11 or C12) saturated or unsaturated aliphatic acid agents to test for the MIC of the agents in combination at which growth of the target pest or pathogen is inhibited. Thus, each well of the microtiter plate is a unique combination of the two agents, at which inhibitory efficacy of the combination against the target pest or pathogen can be determined.\n(§2) In one embodiment according to the present disclosure, for each row of microtiter cells in the Synergistic Growth Inhibition Assay, the FIC index is calculated from the lowest concentration of the pesticidal active ingredient and one or more C4-C10 saturated or unsaturated aliphatic acid agents necessary to inhibit growth of a target pest or pathogen. The FIC of each component is derived by dividing the concentration of the agent present in that well of the microtiter plate by the minimal inhibitory concentration (MIC) needed of that agent alone to inhibit growth of the target pest or pathogen. The FIC index is then the sum of these values for both agents in that well of the microtiter plate. The FIC index is calculated for each row as follows:\n(§3) FICindex=MICa/MICA+MICb/MICB\n(§4) Fractional inhibitory concentration indices may then used as measure of synergy. […] When the FIC index is equal to 1, the combination is additive.\n(§5) Then, serial dilutions of these initial compositions in successive wells in the row of the microtiter plate were used to assay the pesticidal composition under the same conditions to determine the concentration of the composition combining the two agents corresponding to the microtiter well in which growth inhibition of the target pest or organism ceases.\nSimilarly to as described above, Resazurin was used as an indicator of growth or inhibition of growth of Botrytis cinerea in the exemplary Synergistic Growth Inhibition Assay. In addition to the color change of the resazurin, an optical or visual examination of the microtiter well may also be made to additionally determine the presence of growth or inhibition of growth of the Botrytis cinerea."}, "[2]": {"system": "Alternaria solani", "settings": "7 days incubation; for MIC (A): Compound A alone", "description": "as §1, with “In one such embodiment, the Synergistic Growth Inhibition Assay then comprises rows which each contain progressively decreasing concentrations of the pesticidal active ingredient and one or more C4-C10 (or alternatively C11 or C12) saturated or unsaturated aliphatic acid agents to test for the MIC of the agents in combination at which growth of the target pest or pathogen is inhibited.” left out\nIn one embodiment according to the present disclosure, for each row of microtiter cells in the Synergistic Growth Inhibition Assay, the FIC index is calculated from the lowest concentration of the pesticidal active ingredient and one or more C4-C10 saturated or unsaturated aliphatic acid agents necessary to inhibit growth of a target pest or pathogen. […] The FIC index is calculated for each row as follows: […]"}, "[3]": {"system": "Fusarium oxysporum", "settings": "for MIC (A): Compound A alone", "description": "as §1, §2, §3, §4\nas §5, with “ceases. […]” for “ceases.”"}, "[4]": {"system": "Sclerotinia sclerotiorum", "settings": "for MIC (A): Compound A alone", "description": "as §1, §2, §3, §4, §5\nSimilarly to as described above, Resazurin was used as an indicator of growth or inhibition of growth of Sclerotinia sclerotiorum in the exemplary Synergistic Growth Inhibition Assay. […]"}, "[5]": {"settings": "Compound B (aliphatic acid) alone, Botrytis cinerea, 48 hours incubation"}, "[6]": {"settings": "Compound B alone, 48 hours incubation"}, "[7]": {"settings": "Fusarium oxysporum, incubation period of 48 hours"}, "[8]": {"settings": "Sclerotinia sclerotiorum, 7 days incubation"}, "[9]": {"settings": "Botrytis cinerea, 48 hours incubation"}}, "note": "Values joined by “and” are separate entries in the source; they are usually repeats but may differ in a detail not shown here. Equal values may be shown once.", "data": [{"compound": "O=C(O)CCCCCCCCCCCO", "note": "[12-Hydroxydodecanoic acid]", "values": [{"measurement": "MIC (B)", "setting": "[1]; [5]", "value": "100 µg/mL and 50 µg/mL"}]}, {"compound": "Mancozeb", "values": [{"measurement": "MIC (A)", "setting": "[2]", "value": 500, "unit": "µg/mL"}]}, {"compound": "CCCCCCCC(O)CC(=O)O", "note": "(stereo not drawn) [3-Hydroxydecanoic acid, 3-hydroxydecanoic acid]", "values": [{"measurement": "MIC (B)", "setting": "[1]; [5]", "value": 125, "unit": "µg/mL"}]}, {"compound": "CC(O)CC(=O)O", "note": "(stereo not drawn) [3-Hydroxybutyric acid, 3-hydroxybutyric acid]", "values": [{"measurement": "MIC (B)", "setting": "[3]; [6]", "value": 10000, "unit": "µg/mL"}, {"measurement": "MIC (B)", "setting": "[1]; [5]", "value": 10000, "unit": "µg/mL"}]}, {"compound": "CO/C=C(/C(=O)OC)c1ccccc1Oc1cc(Oc2ccccc2C#N)ncn1", "note": "[Azoxystrobin, azoxystrobin, reference compound]", "values": [{"measurement": "MIC (A)", "setting": "[3]; Fusarium oxysporum, 48 hours incubation", "value": 150, "unit": "µg/mL"}, {"measurement": "MIC (A)", "setting": "[3]; [7]", "value": 150, "unit": "µg/mL"}, {"measurement": "MIC (A)", "setting": "[1]; Botrytis cinerea, incubation period of 2 days", "value": 150, "unit": "µg/mL"}, {"measurement": "MIC (A)", "setting": "[1]; Botrytis cinerea, incubation period of 48 hours", "value": "75 µg/mL and 150 µg/mL"}, {"measurement": "MIC (A)", "setting": "[4]; 7 days incubation", "value": 75, "unit": "µg/mL"}, {"measurement": "MIC (A)", "setting": "[4]; [8]", "value": 150, "unit": "µg/mL"}, {"measurement": "MIC (A)", "setting": "[4]; Sclerotinia sclerotiorum, incubation period of 7 days", "value": 150, "unit": "µg/mL"}]}, {"compound": "O=C(O)CCCCCCCO", "note": "[8-Hydroxyoctanoic acid]", "values": [{"measurement": "MIC (B)", "setting": "[1]; [5]", "value": 2500, "unit": "µg/mL"}]}, {"compound": "CC(C)(C)C(O)(CCc1ccc(Cl)cc1)Cn1cncn1", "note": "(stereo not drawn) [Tebuconazole]", "values": [{"measurement": "MIC (A)", "setting": "[3]; [7]", "value": 225, "unit": "µg/mL"}]}, {"compound": "CCCCCC(=O)O", "note": "[Hexanoic acid]", "values": [{"measurement": "MIC (B)", "setting": "[1]; [6]", "value": 156.2, "unit": "µg/mL"}]}, {"compound": "CCC(O)C(=O)O", "note": "(stereo not drawn) [2-Hydroxybutyric acid]", "values": [{"measurement": "MIC (B)", "setting": "[2]; Compound B (aliphatic acid) alone", "value": 2500, "unit": "µg/mL"}]}, {"compound": "CCCC(O)CC(=O)O", "note": "(stereo not drawn) [3-Hydroxyhexanoic acid, 3-hydroxyhexanoic acid]", "values": [{"measurement": "MIC (B)", "setting": "[1]; [5]", "value": 2500, "unit": "µg/mL"}]}, {"compound": "N#Cc1c[nH]cc1-c1cccc2c1OC(F)(F)O2", "note": "[Fludioxonil, fludioxonil]", "values": [{"measurement": "MIC (A)", "setting": "[3]; 24 hour incubation", "value": 0.24063, "unit": "µg/mL"}]}, {"compound": "Cc1cc(C(F)(F)F)nn1CC(=O)N1CCC(c2nc(C3=NOC(c4c(F)cccc4F)C3)cs2)CC1", "note": "(stereo not drawn) [Oxathiapiprolin]", "values": [{"measurement": "MIC (A)", "setting": "[1]; [9]", "value": 500, "unit": "µg/mL"}]}, {"compound": "CO/C=C(/C(=O)OC)c1ccccc1COc1cccc(C(F)(F)F)n1", "note": "[Picoxystrobin]", "values": [{"measurement": "MIC (A)", "setting": "[1]; [9]", "value": 250, "unit": "µg/mL"}, {"measurement": "MIC (A)", "setting": "[4]; [8]", "value": 500, "unit": "µg/mL"}, {"measurement": "MIC (A)", "setting": "[2]", "value": 500, "unit": "µg/mL"}]}, {"compound": "CCCCCCCC/C=C\\CCCCCCCC(=O)O", "note": "[(9Z)-octadecenoic acid]", "values": [{"measurement": "MIC (B)", "setting": "[1]; Compound B alone, Botrytis cinerea, incubation period of 48 hours", "value": 5000, "unit": "µg/mL"}, {"measurement": "MIC (B)", "setting": "[4]; Compound B alone, Sclerotinia sclerotiorum, 7 days incubation", "value": 5000, "unit": "µg/mL"}]}]}
